Experimental data taken from article PMC9241669, “Allantodapsone is a Pan-Inhibitor of Staphylococcus aureus Adhesion to Fibrinogen, Loricrin, and Cytokeratin 10” (Microbiology Spectrum, 2022).
pIC50: −log10 of the molar value. “And” between values parts separate entries of the source, which are not always exact repeats. Equal entries are not always repeated. Where two headings read alike, the source gives them in different places.

Columns and labels:
[1] = test system: S. aureus Newman; assay: Agglutination (fibrinogen clumping) assay; format: cell-based, Staphylococcus aureus; settings: 100 μM allantodapsone; 5 mg/mL fibrinogen; stationary phase
Method: V. Microbiology: Materials and Methods
The MTT toxicity assay (1) (Vybrant MTT Cell Proliferation Assay, Molecular Probes, Or, USA) was used to measure cytotoxicity. Myeloid lineage, U-937 cells (2) were grown in RPMI-1640 (Gibco) culture medium supplemented with 10% foetal calf serum, 1% L-glutamine and 1% Penicillin/Streptomycin (Gibco). U-937 cells were centrifuged and cells diluted with fresh medium containing 1.2 mM MTT solution to a concentration of (5-6 x 10^6 per mL) and incubated at 37 °C for 2 h. Cells were centrifuged and the pellet dissolved in DMSO. The absorbance was read at 490 nm using the Wallac Victor2, (Shelton, Connecticut, USA).
Platelet aggregation was performed in platelet rich plasma according to O’Brien et al.
S. aureus Newman (stationary phase) was washed and diluted to an OD600 of 2.5.
This was mixed with 10 mg/mL of fibrinogen in 1:1 ratio resulting in a final concentration 5 mg/mL fibrinogen. Fibrinogen -bacteria aggregates clump and settle at the bottom of the tube resulting in a clear solution. These were compared to the turbid bacterial suspension in buffer by visual inspection. […]
of S. aureus Newman was used as an agonist to stimulate platelet aggregation. The FcγRIIa antibody IV.3 (StemCell Technologies, London, UK) was used at a concentration of […]. […] Data was analysed by repeated measures ANOVA followed by a multiple comparison Dunnett’s test. […]

[2] = test system: S. aureus SH1000; assay: Adhesion of S. aureus SH1000 to immobilized fibrinogen (crystal violet); format: cell-based, Staphylococcus aureus; settings: for pIC50: Staphylococcus aureus
Method: FIG 2 Allantodapsone inhibits S. aureus adhesion to fibrinogen. (A) S. aureus Newman stationary phase and (B) exponential phase. (C) S. aureus SH1000 stationary phase and (D) exponential phase bacteria. Fibrinogen was used to coat plates at 4°C overnight at 10 μg/mL. Wells were washed with PBS and blocked with 1% BSA. Washed bacteria (OD600 of 1) were mixed with the relevant concentration of allantodapsone or vehicle control for 5 min, and added to the wells, incubating for 2 h at 37°C. Adherent cells were washed, fixed, and stained with crystal violet, and wells further washed. The dye was dissolved in acetic acid and the absorbance measured at 570 nm. Compounds were screened at a concentration of 70 μM and compared to their vehicle control. Statistical analysis was carried out using repeated measures ANOVA followed by multiple comparisons Dunnett’s tests using GraphPad PRISM. **, P ≤ 0.01; ***, P ≤ 0.001; ****, P ≤ 0.0001 (n = 3).
(§1) Adhesion assays were carried out according to Hartford et al. ([37]). Briefly, plates were coated with 10 μg/mL fibrinogen (Calbiochem, Darmstadt, Germany) or 20 μg/mL fibronectin (Sigma-Aldrich, Ireland) for 2 h at 37°C or for 16 h at 4°C. Plates were blocked with 1% BSA at 37°C for 1 h and washed 3 times in PBS. Washed bacteria were incubated at 37°C for 2 h. Adherent bacteria were washed three times in PBS and fixed in 5–9% formaldehyde at room temperature for 30 min. Wells were washed three times in PBS and stained using 5% crystal violet for 20 min. Wells were washed three times in PBS, and the crystal violet solubilized using 5% acetic acid. Plates were read at 570 nm on a Wallac Victor2, (Shelton, CT, USA). The minimum adhesion inhibitory concentration (MAIC) was determined as the concentration inhibiting greater than 90% bacterial adhesion.
Compounds were added to the bacterial suspension prior to addition to the wells. In each experiment, vehicle controls were prepared using the same volume of vehicle for the matching test compound.

[3] = test system: S. aureus Newman; assay: Adhesion of S. aureus Newman to cytokeratin 10 (CK10); format: cell-based, Staphylococcus aureus; settings: CK10 10 nM
Method: FIG 4 Allantodapsone inhibits S. aureus adhesion to loricrin and cytokeratin 10. Dose-response curve for adhesion of S. aureus Newman to GST-L2v loricrin (A) and CK10 (C). (B) Inhibition of recombinant ClfB N2N3 binding to immobilized GST-L2v loricrin by allantodapsone. (D) Inhibition of S. aureus Newman adhesion to GST-L2v loricrin by allantodapsone derivatives. Purified GST-L2v or CK10 were used to coat plates at 4°C overnight. Wells were washed with PBS and blocked with 1% BSA. Washed bacteria (OD600 of 1) were mixed with allantodapsone or vehicle control before being added to the wells and incubated for 2 h at 37°C. Adherent cells were washed, fixed, and stained with crystal violet, and wells further washed. The dye was dissolved in acetic acid, and the absorbance measured at 570 nm. GST-L2v was used at 20 μM in A and D. CK10 was used at 10 nM. […] Bound ClfB was detected using peroxidase-conjugated anti-His monoclonal antibody in an ELISA. […]
Adhesion assays were carried out according to Hartford et al. ([37]). […] Plates were read at 570 nm on a Wallac Victor2, (Shelton, CT, USA). The minimum adhesion inhibitory concentration (MAIC) was determined as the concentration inhibiting greater than 90% bacterial adhesion.

[4] = test system: S. aureus Newman; assay: Adhesion of S. aureus Newman to GST-L2v loricrin; format: cell-based, Staphylococcus aureus; settings: for concentration giving full inhibition of adhesion to L2v loricrin: S. aureus Newman, GST-L2v
Method: FIG 4 Allantodapsone inhibits S. aureus adhesion to loricrin and cytokeratin 10. Dose-response curve for adhesion of S. aureus Newman to GST-L2v loricrin (A) and CK10 (C). (B) Inhibition of recombinant ClfB N2N3 binding to immobilized GST-L2v loricrin by allantodapsone. (D) Inhibition of S. aureus Newman adhesion to GST-L2v loricrin by allantodapsone derivatives. Purified GST-L2v or CK10 were used to coat plates at 4°C overnight. Wells were washed with PBS and blocked with 1% BSA. Washed bacteria (OD600 of 1) were mixed with allantodapsone or vehicle control before being added to the wells and incubated for 2 h at 37°C. Adherent cells were washed, fixed, and stained with crystal violet, and wells further washed. The dye was dissolved in acetic acid, and the absorbance measured at 570 nm. GST-L2v was used at 20 μM in A and D. CK10 was used at 10 nM. Test compounds were incubated with bacteria at 80 μM and normalized to the DMSO vehicle control in D. For data presented in B, recombinant ClfB was incubated with allantodapsone (100 μM) or DMSO (1%) for 30 min prior to being added to wells coated with recombinant GST-L2v loricrin. Bound ClfB was detected using peroxidase-conjugated anti-His monoclonal antibody in an ELISA. The graphs shown are representative of three independent experiments. Statistics were carried out using one-way ANOVA followed by the Dunnett’s posttest using GraphPad Prism version 9.0.
as §1

[5] = test system: L. lactis ClfA; assay: Adhesion of L. lactis ClfA to immobilized fibrinogen; format: cell-based, Lactococcus lactis
Method: FIG 1 Allantodapsone inhibits S. aureus Newman adhesion to fibrinogen. Dose response curves for S. aureus Newman (A), L. lactis ClfA (B), and L. lactis ClfB (C) adhesion to fibrinogen. Fibrinogen was used to coat plates at 4°C overnight at 10 μg/mL. Wells were washed with PBS and blocked with 1% BSA. Washed bacteria (OD600 of 1) were mixed with the relevant concentration of allantodapsone or vehicle control (DMSO) for 5 min, and added to the wells, incubating for 2 h at 37°C. Adherent cells were washed, fixed, and stained with crystal violet, and wells further washed. The dye was dissolved in acetic acid and the absorbance measured at 570 nm. IC50 values were generated using GraphPad Prism 9.0 GraphPad software, San Diego, CA. Data are representative of three experiments with error presented as SEM.
Adhesion assays were carried out according to Hartford et al. ([37]). Briefly, plates were coated with 10 μg/mL fibrinogen (Calbiochem, Darmstadt, Germany) or 20 μg/mL fibronectin (Sigma-Aldrich, Ireland) for 2 h at 37°C or for 16 h at 4°C. Plates were blocked with 1% BSA at 37°C for 1 h and washed 3 times in PBS. Washed bacteria were incubated at 37°C for 2 h. […] Plates were read at 570 nm on a Wallac Victor2, (Shelton, CT, USA). The minimum adhesion inhibitory concentration (MAIC) was determined as the concentration inhibiting greater than 90% bacterial adhesion. […]

**Q.** What does the source list for `Nc1ccc(S(=O)(=O)c2ccc(NCN3C(=O)NC(=O)C(=O)C3=O)cc2)cc1` [Allantodapsone]?
**A.** inhibition of clumping of bacteria in fibrinogen [1]: did not inhibit; inhibition of adhesion to fibrinogen ([2]; S. aureus SH1000, stationary and exponential phase, compounds screened at 70 μM (Fig. 2)): inhibited; pIC50 ([2]; SH1000, read-out: IC50, inhibition of adhesion to fibrinogen, S. aureus SH1000 exponential phase): 4.81; pIC50 ([2]; SH1000, read-out: IC50, inhibition of adhesion to fibrinogen, S. aureus SH1000 stationary phase): 5.12; inhibition of adhesion to CK10 [3]: dose dependent inhibition; concentration giving full inhibition of adhesion to L2v loricrin [4]: 40 µM; concentration giving full inhibition of adhesion to L2v loricrin ([4]; listed as allantodapsone): 16.1 µg/mL; pIC50 ([4]; Staphylococcus aureus, NEWMAN, read-out: IC50, inhibition of adhesion to L2v loricrin): 5.01; minimum adhesion inhibitory concentration (MAIC) ([5]; L. lactis ClfA, fibrinogen): 10 μM and 4.0 μg/mL; pIC50 ([5]; Lactococcus lactis, read-out: IC50, inhibition of adhesion to fibrinogen): 5.42
